Active and inactive are the calls of the source. How the calls were made is not given here.

The test system of the first test is S. Typhi PhoP-regulated promoter GFP reporter, 4 h. In words: PhoP regulon inhibitors in S. Typhi, SAR follow-up, purified and synthesized compounds, round 3 (AID 434995).
Conditions: not given
Usually IC50 stands for the point on the concentration scale where inhibition reaches its midpoint. As for `S=C(NCCc1ccc(Cl)cc1)Nc1ccncc1`, the IC50 was 20.7 µM.

On to `O=C(Nc1ccc(I)cc1)N1CCCN(Cc2ccccc2F)C1`, for which the IC50 was 81.6 µM.

Regarding `O=C(Nc1ccc(Cl)cc1)N1CCCN(Cc2ccccc2Br)C1`, the IC50 is 116 µM.

System in a further test: not listed separately
The test is described as above. The note with it: S. Typhi PhoP-regulated promoter GFP reporter, 4 h; at 75 µM (top of the series).
The term inhibition denotes the change of the read-out against control, counted positive when it falls. As for `O=C(Nc1ccc(Cl)cc1)N1CCCN(Cc2ccc(Br)cc2)C1`, the inhibition was -28.5% (inactive).

The same test, now with this note: S. Typhi PhoP-regulated promoter GFP reporter, 4 h; at 150 µM (top of the series).
`N#Cc1ccc(NC(=S)NCc2ccc(Cl)cc2)cc1`: the inhibition was -25.7% (inactive).

As to `O=C(Nc1cccc(F)c1)N1CCCN(Cc2ccccc2F)C1`, the inhibition was 25.8% (inactive).

For the compound `N#Cc1ccccc1NC(=S)NCc1ccc(Cl)cc1`, the inhibition is -27.4% (inactive).

As for `COc1ccccc1CNC(=S)Nc1ccncc1`, the inhibition was 11.4% (inactive).

Turning to `O=C(Nc1cccc(I)c1)N1CCCN(Cc2ccccc2F)C1`, the inhibition was -16.5% (inactive).

Regarding `Cc1ccccc1CNC(=S)Nc1ccncc1`, the inhibition is -37.8% (inactive).

For `Cc1ccc(NC(=O)N2CCCN(Cc3ccccc3F)C2)cc1`, the inhibition was -12.7% (inactive).

`O=C(Nc1cccc(C(F)(F)F)c1)N1CCCN(Cc2ccccc2F)C1`: the inhibition is 8.86% (inactive).
